Data reported in patent US20240277682A1, “PHARMACEUTICAL HYDRONIDONE FORMULATIONS FOR DISEASES” (Gyre Therapeutics, Inc., priority 2021, published 2024).

Columns and labels:
liver fibrosis [1] = test: CCl4-induced liver fibrosis in mice; assay type: in vivo
Method: (§1) Hydronidone anti-fibrotic effects were evaluated in several animal models of liver fibrosis, such as human serum albumin (HSA)-induced liver fibrosis in rats, dimethyl nitrosamine (DMN)-induced liver fibrosis in rats, and carbon tetrachloride (CCl4)-induced liver fibrosis in mice. […] In the CCl4-induced liver fibrosis in mice, Hydronidone effects were the most prominent at the doses of 3-10 mg/kg/day, although some effects were also shown at the dose of 1 mg/kg/day. In some embodiments, this dose range corresponds to human equivalent dose (HED) range of 15-50 mg. […] The HED of these rat doses are in the range of 100-2,400 mg which were all tested as safe in Phase I clinical trials of Hydronidone, with the 100 mg dose being […] the maximum daily dose of 360 mg (administered as 120 mg TID) administered to the subjects with liver fibrosis due to chronic Hepatitis B in the ongoing Phase II clinical study of efficacy and safety of Hydronidone in China.

liver fibrosis [2] = test: HSA-induced and DMN-induced liver fibrosis in rats; assay type: in vivo
Method: as §1

[3] = Crossover study of food effect on safety, tolerability and PK of a single oral dose (Example 8); assay type: in vivo, human
Method: This was a randomized, open-label, 2-period, crossover PK study of effects of food on safety, tolerability, and PK of single oral doses of Hydronidone in healthy Chinese subjects. The PK parameters of the M3 and M4 metabolites of Hydronidone, in presence or absence of food were also determined.
Twelve healthy Chinese subjects were enrolled, dosed and in this inpatient study. They were randomly assigned in two groups/periods to receive a single oral 600 mg (3×200 mg) dose of Hydronidone either under fasted, or fed (high fat) conditions. Within each treatment period, PK blood samples were collected at: 0 (pre-dose), 10 min, 20 min, 30 min, 40 min, 1 hr, 1.5 hr, 2 hr, 3 hr, 4 hr, 5 hr, 6 hr, 8 hr, 10 hr, 12 hr, 16 hr, and 24 hr, and 48 hr post-dose. The wash-out period between the two periods in this trial was 48 hours.

[4] = single oral 600 mg dose of Hydronidone, fed vs fasted

Cc1ccc(=O)n(-c2ccc(O)cc2)c1 [Hydronidone, N-(4-hydroxyphenyl)-5-Methyl-2-pyridone]
anti-fibrotic effect (level of fibrosis, hydroxyproline, ALT, AST) (liver fibrosis [1]): potent anti-fibrotic effect
dose at which some effects were also shown (liver fibrosis [1]): 1 mg/kg/day
doses at which effects were the most prominent (liver fibrosis [1]): 3 to 10 mg/kg/day
anti-fibrotic effect (level of fibrosis, hydroxyproline, ALT, AST) (liver fibrosis [2]; HSA- and DMN-induced liver fibrosis in rats): potent anti-fibrotic effect
anti-fibrotic effect compared with silymarin extract (positive control) (liver fibrosis [2]; rats): comparable or more potent than silymarin extract
dose range in which anti-fibrotic effects were shown (liver fibrosis [2]; rats, depending on the model): 10 to 250 mg/kg/day
effect of food (high-fat meal) on Cmax [3, 4]: decreasing their Cmax values
effect of food (high-fat meal) on rate of absorption [3, 4]: delayed the rate of absorption
safety and tolerability ([3]; single oral 600 mg dose, fed or fasted): safe and well tolerated, without SAEs or AEs reported
